The results in this text go back to US9017692B2, “Antimicrobial agent, bacterial strain, biosynthesis, and methods of use” (priority 2011, dated 2015).

Values after ≈ are worked out from the molar mass of the structure shown. Read-outs that look alike come from different tables or passages of the source. A value given as a limit tells only on which side of the number the result lay.

One test relates to PAE.2281. The test is described as follows: MIC, CLSI broth microdilution, Gram-negative clinical isolates. The format is cell-based, Pseudomonas aeruginosa. The conditions noted are these: Pseudomonas aeruginosa, read-out: Minimum inhibitory concentration (MIC). The method, then: (§1) Plates were incubated at 35° C. for 24 h.
(§2) The activity of paenibacterin was also tested against clinical isolates of the following Gram-negative bacterial strains: four strains of the species Pseudomonas aeruginosa (PAE), three strains of the species Acinetobacter baumannii (ABA), two strains of the species Escherichia coli (ECO), and four strains of the species Klebsiella pneumoniae (KPN). Particularly, the strains of Gram-negative bacteria included polymyxin B-resistant (PMB-R) and polymyxin B-sensitive (PMB-S) strains of each above listed species. The MICs were determined using the above described CLSI broth microdilution method, in which the method was performed with both non-binding surface coated (NBS) and polystyrene (PS) 96-well plates (Tables 11 and 12, respectively). The MICs were generally lower in the NBS 96-well plates as compared to the PS 96-well plates.

Another test deals with PAE.2325. Described as above. Particulars: Pseudomonas aeruginosa, read-out: Minimum inhibitory concentration (MIC). It is filed as cell-based, Pseudomonas aeruginosa. The protocol: as §1, §2
The next test concerns PAE.44. Described as above. It is filed as cell-based, Pseudomonas aeruginosa. The conditions noted are these: Pseudomonas aeruginosa, non-binding surface coated (NBS) 96-well plates, read-out: Minimum inhibitory concentration (MIC). The method, then:
as §1, §2

For the next test, the system named is PAE.999. The description is as above. The format is cell-based, Pseudomonas aeruginosa. The conditions noted are these: Pseudomonas aeruginosa, read-out: Minimum inhibitory concentration (MIC). The method, then:
as §1, §2

The subject of a further test is ABA.1570. The description is as above. The format is cell-based, Acinetobacter baumannii. The conditions noted are these: Acinetobacter baumannii, read-out: Minimum inhibitory concentration (MIC). The protocol: as §1, §2
The next test has as its system ABA.2232. The description is as above. It is filed as cell-based, Acinetobacter baumannii. Particulars: Acinetobacter baumannii, read-out: Minimum inhibitory concentration (MIC). The method, then: as §1, §2
The next test deals with ABA.2315. The test is described as above. It is filed as cell-based, Acinetobacter baumannii. The method, then:
as §1, §2

For the next test, the system named is ATCC 25922 ECO.35. Described as above. It is filed as cell-based, Escherichia coli. Particulars: Escherichia coli, read-out: Minimum inhibitory concentration (MIC). The protocol: as §1, §2
The subject of the next test is ECO.2276. Described as above. It is filed as cell-based, Escherichia coli. The conditions noted are these: Escherichia coli, read-out: Minimum inhibitory concentration (MIC). The method, then: as §1, §2
In the next test the test system is KPN.2317. The description is as above. The format is cell-based, Klebsiella pneumoniae. Particulars: for MIC: Klebsiella pneumoniae, read-out: Minimum inhibitory concentration (MIC). The protocol:
as §1, §2

For a further test, the system named is KPN.674. The test is described as above. It is filed as cell-based, Klebsiella pneumoniae. Particulars: Klebsiella pneumoniae, read-out: Minimum inhibitory concentration (MIC). The protocol:
as §1, §2

The test system of a further test is PMB-R, KPN.2463. Described as above. It is filed as cell-based, Klebsiella pneumoniae. The protocol: as §1, §2
A further test relates to PMB-S, KPN.2461. Described as above. The format is cell-based, Klebsiella pneumoniae. The protocol: as §1, §2
Test [1] deals with DS-VRE ATCC 700802 EFS.807. The experiment in a line: microbe, parasite or virus in culture. The conditions noted are these: Enterococcus faecalis, ATCC700802|VRE, read-out: Minimum inhibitory concentration (MIC). The protocol:
(§3) The activity of paenibacterin against several strains of Gram-positive and Gram-negative foodborne pathogens is summarized in Table 10. The data is reported as minimum inhibitory concentrations (MIC) as an average of three replicates for paenibacterin against the various listed bacterial strains. […] MICs were determined according to the CLSI broth microdilution method (see, Clinical and Laboratory Standards Institute (CLSI). 2009. Methods for dilution antimicrobial susceptibility tests for bacteria that grow aerobically; approved standard. […]. CLSI, Wayne, Pa.). Briefly, HPLC-purified paenibacterin was dissolved in methanol and diluted to appropriate concentration with cation-adjusted Mueller-Hinton II broth (Difco). Aliquots (25 μl) of serially-diluted paenibacterin was dispensed into wells of a 96-well plate; an equal amount of 1/10 diluted overnight bacterial culture was added to wells. Plates were incubated at 35° C. for 24 h. Cell growth after incubation was examined and determined using a microtiter plate reader at 600 nm. Concentration of paenibacterin is determined based on a molecular weight of 1604 Da.
(§4) The activity of paenibacterin was further tested against clinical isolates of the following Gram-positive bacteria: methicillin-sensitive Staphylococcus aureus (MSSA), methicillin-resistant S. aureus (MRSA), vancomycin-sensitive Enterococcus faecalis, vancomycin-resistant E. faecalis (VRE), Streptococcus pneumoniae, and laboratory derived daptomycin-resistant (DR) MSSA, MRSA, and VRE strains. The MICs were determined using the above described CLSI broth microdilution method, in which the method was performed with non-binding surface coated (NBS) 96-well plates.

Another test relates to MSSA ATCC 29213 SAU.42. The experiment in a line: microbe, parasite or virus in culture. Particulars: Staphylococcus aureus, ATCC29213|MSSA, read-out: Minimum inhibitory concentration (MIC). The protocol:
as §3, §4

A further test concerns WT ATCC 29212 EFS.43. The experiment in a line: microbe, parasite or virus in culture. Particulars: Enterococcus faecalis, ATCC29212, read-out: Minimum inhibitory concentration (MIC). The protocol: as §3, §4
The test system of test [2] is DR-MRSA from MW2 SP SAU.1616. The experiment in a line: microbe, parasite or virus in culture. Particulars: Staphylococcus aureus, MRSA, read-out: Minimum inhibitory concentration (MIC). The method, then: as §3, §4
Test [3] relates to DR-MSSA from SAU.42 SAU.278. The experiment in a line: microbe, parasite or virus in culture. The conditions noted are these: Staphylococcus aureus, MSSA, read-out: Minimum inhibitory concentration (MIC). The method, then:
as §3, §4

The subject of test [4] is DR-VRE from EFS.807 EFS.2731. The experiment in a line: microbe, parasite or virus in culture. Particulars: Enterococcus faecalis, VRE, read-out: Minimum inhibitory concentration (MIC). The protocol:
as §3, §4

The test system of another test is MRSA ATCC 43300 SAU.399. The test is described as follows: microbe, parasite or virus in culture. Particulars: Staphylococcus aureus, ATCC43300|MRSA, read-out: Minimum inhibitory concentration (MIC). The protocol:
as §3, §4

Another test relates to WT ATCC 49619 SPN.31. The test is described as follows: microbe, parasite or virus in culture. Particulars: Streptococcus pneumoniae, ATCC49619, read-out: Minimum inhibitory concentration (MIC). The method, then: as §3, §4

As to `C[C@@H](O)[C@H]1C(=O)N2C(C(=O)O)=C(S[C@@H]3CN[C@H](C(=O)N(C)C)C3)[C@H](C)[C@H]12` [meropenem #413, meropenem], the MIC is 1 to 2 µg/mL (≈ 2.61 to 5.22 µM) in the test with PAE.2281 (NBS 96-well plates); 0.5 µg/mL (≈ 1.3 µM) with PAE.2281 (PS 96-well plates); 2 to 4 µg/mL (≈ 5.22 to 10.4 µM) in the test on PAE.2325 (NBS 96-well plates); 2 µg/mL (≈ 5.22 µM) with PAE.2325 (PS 96-well plates); 1 µg/mL (≈ 2.61 µM) in the test on PAE.44; > 8 µg/mL in the test on PAE.999 (NBS 96-well plates). Moreover, the MIC in the test on PAE.999 (PS 96-well plates) was > 8 µg/mL; in the test on ABA.1570 (NBS 96-well plates), 8 µg/mL (≈ 20.9 µM); in the test with ABA.1570 (PS 96-well plates), > 8 µg/mL; in the test with ABA.2232 (NBS 96-well plates), 0.125 to 0.25 µg/mL (≈ 0.326 to 0.652 µM); in the test on ABA.2232 (PS 96-well plates), 0.5 µg/mL (≈ 1.3 µM); with ABA.2315 (Acinetobacter baumannii, NBS 96-well plates, read-out: Minimum inhibitory concentration (MIC)), > 8 µg/mL. Moreover, the MIC with ATCC 25922 ECO.35 (ATCC25922, ECO.35 (ATCC 25922), NBS 96-well plates) was 0.03 µg/mL (≈ 0.0782 µM); in the test with ATCC 25922 ECO.35 (ATCC25922, ECO.35, PS 96-well plates), 0.016 µg/mL (≈ 0.0417 µM); in the test on ECO.2276 (NBS 96-well plates) it was 0.03 to 0.06 µg/mL (≈ 0.0782 to 0.156 µM); in the test on ECO.2276 (PS 96-well plates), 0.03 µg/mL (≈ 0.0782 µM); in the test with KPN.2317 (NBS 96-well plates), 0.0625 µg/mL (≈ 0.163 µM); in the test on KPN.2317 (PS 96-well plates) it was 0.03 µg/mL (≈ 0.0782 µM). Further, the MIC with KPN.674 (NBS 96-well plates) was 0.0625 µg/mL (≈ 0.163 µM); in the test with KPN.674 (PS 96-well plates), 0.03 µg/mL (≈ 0.0782 µM); in the test with PMB-R, KPN.2463 (Klebsiella pneumoniae, KPN.2463 (PMB-R), NBS 96-well plates, read-out: Minimum inhibitory concentration (MIC)), > 8 µg/mL; with PMB-S, KPN.2461 (Klebsiella pneumoniae, KPN.2461 (PMB-S), NBS 96-well plates, read-out: Minimum inhibitory concentration (MIC)), > 8 µg/mL; in test [1] it was 4 µg/mL (≈ 10.4 µM); in the test with MSSA ATCC 29213 SAU.42, 0.125 µg/mL (≈ 0.326 µM). For the same molecule, the MIC in the test with WT ATCC 29212 EFS.43 stood at 2 µg/mL (≈ 5.22 µM). Besides, the “Minimum inhibitory concentration (MIC)” value in the test on ABA.2315 (PS 96-well plates) was >8 µg/mL; in the test on KPN.2317 (NBS 96-well plates), 0.06 µg/mL (≈ 0.156 µM); with PMB-R, KPN.2463 (KPN.2463, PS 96-well plates) it was >8 µg/mL; in the test on PMB-S, KPN.2461 (KPN.2461, PS 96-well plates) it was >8 µg/mL.
On to `CN[C@H](CC(C)C)C(=O)N[C@H]1C(=O)N[C@@H](CC(N)=O)C(=O)N[C@H]2C(=O)N[C@H]3C(=O)N[C@H](C(=O)N[C@H](C(=O)O)c4cc(O)cc(O)c4-c4cc3ccc4O)[C@H](O)c3ccc(c(Cl)c3)Oc3cc2cc(c3O[C@@H]2O[C@H](CO)[C@@H](O)[C@H](O)[C@H]2O[C@H]2C[C@](C)(N)[C@H](O)[C@H](C)O2)Oc2ccc(cc2Cl)[C@H]1O` [vancomycin], for which the MIC in [2] is 2 µg/mL (≈ 1.38 µM); in [3], 2 µg/mL (≈ 1.38 µM); in [4] it was 32 µg/mL (≈ 22.1 µM); in [1], 16 to 32 µg/mL (≈ 11 to 22.1 µM); in the test with MRSA ATCC 43300 SAU.399, 2 µg/mL (≈ 1.38 µM); with MSSA ATCC 29213 SAU.42, 1 µg/mL (≈ 0.69 µM). The MIC in the test on WT ATCC 29212 EFS.43 was 2 to 4 µg/mL (≈ 1.38 to 2.76 µM); with WT ATCC 49619 SPN.31, 16 µg/mL (≈ 11 µM).
